Reference: patent USRE47193E1, “Selectively substituted quinoline compounds” (EISAI R&D MANAGEMENT CO., LTD., priority 2013, dated 2019)
Several values for one entry are separate records, joined by “and”; a condition that tells them apart may be missing. Identical values can stand only once.

Molecular target: T1, human TLR8 (Homo sapiens, UniProt Q9NR97)
T1 construct: host or cells: HEK-293, then stably transfected with pNiFty2(NF-kappaB)-luciferase reporter
T1 sequence (Q9NR97 27-1041): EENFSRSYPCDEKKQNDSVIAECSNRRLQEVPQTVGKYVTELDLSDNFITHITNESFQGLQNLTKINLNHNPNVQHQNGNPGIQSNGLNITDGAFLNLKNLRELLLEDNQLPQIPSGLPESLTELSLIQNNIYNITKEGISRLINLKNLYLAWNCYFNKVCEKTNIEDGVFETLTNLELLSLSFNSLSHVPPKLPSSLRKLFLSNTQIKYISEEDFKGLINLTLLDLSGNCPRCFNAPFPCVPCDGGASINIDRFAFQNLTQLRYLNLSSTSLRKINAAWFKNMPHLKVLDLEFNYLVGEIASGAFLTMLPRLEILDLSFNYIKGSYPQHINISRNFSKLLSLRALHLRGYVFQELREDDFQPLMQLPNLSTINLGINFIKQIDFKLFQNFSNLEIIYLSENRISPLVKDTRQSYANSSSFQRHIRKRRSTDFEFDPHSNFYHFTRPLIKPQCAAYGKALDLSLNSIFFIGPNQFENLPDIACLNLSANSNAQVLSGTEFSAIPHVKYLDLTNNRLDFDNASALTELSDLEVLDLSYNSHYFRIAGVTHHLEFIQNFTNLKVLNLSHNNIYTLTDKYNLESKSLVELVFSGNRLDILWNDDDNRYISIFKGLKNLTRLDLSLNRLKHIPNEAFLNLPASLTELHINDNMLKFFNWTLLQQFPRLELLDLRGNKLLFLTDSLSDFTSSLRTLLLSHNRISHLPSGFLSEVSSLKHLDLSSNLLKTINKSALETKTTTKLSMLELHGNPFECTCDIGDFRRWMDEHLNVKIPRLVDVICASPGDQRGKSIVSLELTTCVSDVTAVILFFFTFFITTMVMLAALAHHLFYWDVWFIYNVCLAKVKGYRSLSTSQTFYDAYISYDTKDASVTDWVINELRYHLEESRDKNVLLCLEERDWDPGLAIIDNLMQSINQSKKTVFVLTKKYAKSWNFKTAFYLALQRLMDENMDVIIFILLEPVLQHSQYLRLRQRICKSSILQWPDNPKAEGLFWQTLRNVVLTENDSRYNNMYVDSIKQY
Assay: HEK-293 human TLR8 NF-kappaB luciferase reporter assay (CL097)
Format: cell-based
Details: HEK-293 assay format; read-out: HEK/hTLR8 IC50
Description: Effects on mouse TLR7 were also compared. Cells were stimulated overnight with TLR7/8 agonist CL097 at pre-determined ED70-80: 3 ug/ml for HEK-hTLR7, 1.5 ug/ml for HEK-mTLR7 and 12 ug/ml for HEK-hTLR8, before reading luminescence intensity. Three tests were performed and IC50 value was determined using Graphpad Prism 6 nonlinear regression curve fit.
HEK-293 cells (ATCC) were engineered to stably express a NF-kappaB transcription factor inducible E-selectin (ELAM-1) luciferase reporter derived from the plasmid pGL3 (Promega) containing base pairs −2241 bp to −254 bp from the promoter of the human E-selectin gene (Accession No. NM_000450). These cells were then subsequently engineered to stably and individually express human TLR4, TLR7 or TLR9 full-length ORF cDNAs. Human TLR4 cDNA (Accession No. NM_138554) was cloned into pcDNA 3.0 expression vector (Invitrogen). TLR4 transfected cells were also engineered to express human MD-2 co-receptor [MD-2 cDNA (Accession No. NM_015364) was cloned into the pEF-BOS vector] and were supplemented with 10 nM soluble CD14 (R&D Systems) in the media to optimize LPS responsiveness. Human TLR9 cDNA (Accession No. NM_017442) was cloned into the pBluescript II KS vector (Agilent). Human TLR7 cDNA (Accession No. NM_016562) was obtained from OriGene. HEK-293 cells stably expressing human TLR8 (Accession No. NM_138636) or mouse TLR7 (Accession No. NM_133211) were purchased from InvivoGen and were then stably transfected with pNiFty2(NF-kappaB)-luciferase reporter plasmid (InvivoGen). Each cell type was plated in Dulbecco's modified Eagle's medium (DMEM) containing 10% fetal bovine serum (FBS) at a density of 2.22×10^5 cells/ml into a 384-well plate and incubated for 2 days at 37° C., 5% CO2. Varying concentrations of antagonist compounds were then added. Cells were then incubated for another 30 minutes before adding the appropriate TLR agonist as follows (final concentrations indicated): lipopolysaccharide (LPS; Sigma) at 10 ng/ml for TLR4, CL097 (InvivoGen) at 3 ug/ml for human TLR7 and TLR8 and mouse TLR7, and CvG-2006-2A [sequence: […] (SEQ ID NO: 1) with phosphorothioate backbone, synthesized by Sigma-Aldrich] at 0.6 uM for TLR9.

| Structure (SMILES) | IC50 |
| --- | --- |
| C[C@@H]1CN(c2ccc(C#N)c3ncccc23)C[C@H](C)O1 [ER-878952] | 6 nM and 19.5 nM |
| C[C@@H]1CN(c2ccc(C#N)c3ncccc23)C[C@H](CO)O1 [ER-885493, 5-((2R,6R)-2-(hydroxymethyl)-6-methylmorpholino)quinoline-8-carbonitrile] | 101 nM |
| CC1CN(c2ccc(C#N)c3ncccc23)CC(CN2CCCC2CO)O1 (stereo not drawn) [ER-886814] | 60 nM |
| C[C@@H]1CN(c2ccc(C#N)c3ncccc23)C[C@H](CN2CC[C@H](O)C2)O1 [ER-886820] | 78 nM |
| C[C@@H]1CN(c2ccc(C#N)c3ncccc23)C[C@H](CN2CCC(O)CC2)O1 [ER-886953] | 66 nM |
| C[C@@H]1CN(c2ccc(C#N)c3ncccc23)C[C@H](CNC2CCCC2)O1 [ER-887145] | 105 nM |
| C[C@@H]1CN(c2ccc(C#N)c3ncccc23)C[C@H](CN2CCNCC2)O1 [ER-887253] | 2 nM |
| C[C@@H]1CN(C[C@H]2CN(c3ccc(C#N)c4ncccc34)C[C@@H](C)O2)CCN1 [ER-887269] | 3.2 nM |
| CC1CNC(=O)CN1C[C@H]1CN(c2ccc(C#N)c3ncccc23)C[C@@H](C)O1 (stereo partly drawn) [ER-887722] | 21 nM |
| C[C@@H]1CN(c2ccc(C#N)c3ncccc23)C[C@H](CN2CCN(C)CC2)O1 [ER-887723] | 9 nM |
| CCCN1CCN(C[C@H]2CN(c3ccc(C#N)c4ncccc34)C[C@@H](C)O2)CC1 [ER-887724] | 6 nM |
| CC1CN(c2ccc(C#N)c3ncccc23)CC(CN2CCC(N(C)C)CC2)O1 (stereo not drawn) [ER-887725] | 1 nM |
| C[C@@H]1CN(c2ccc(C#N)c3ncccc23)C[C@H](CN2CCC(N3CCCCC3)CC2)O1 [ER-887927, 5-((2S,6R)-2-([1,4′-bipiperidin]-1′-ylmethyl)-6-methylmorpholino)quinoline-8-carbonitrile] | 0.5 nM |
| CC[C@H]1CN(C[C@H]2CN(c3ccc(C#N)c4ncccc34)C[C@@H](C)O2)CCN1 [ER-890963] | 2.8 nM |

Same assay, conditions: HEK-hTLR8; CL097 12 ug/ml; average of three tests; read-out: IC50 average

| Structure (SMILES) | IC50 [nM] |
| --- | --- |
| CCN(CCO)CCCC(C)Nc1ccnc2cc(Cl)ccc12 (stereo not drawn) [HCQ, hydroxychloroquine, reference compound] | > 10000 |

Same assay, conditions: HEK-hTLR8; CL097 12 ug/ml; individual tests 1-3; read-out: IC50

| Structure (SMILES) | IC50 [nM] |
| --- | --- |
| CCN(CCO)CCCC(C)Nc1ccnc2cc(Cl)ccc12 (stereo not drawn) [HCQ, hydroxychloroquine, reference compound] | > 10000 |

Same assay, conditions: IC50, HEK-hTLR8; CL097 12 ug/ml; individual tests 1-3

| Structure (SMILES) | IC50 |
| --- | --- |
| C[C@@H]1CN(c2ccc(C#N)c3ncccc23)C[C@H](C(=O)N[C@H]2CNC[C@H]2F)O1.Cl [ER-899742, (2R,6R)-4-(8-cyanoquinolin-5-yl)-N-[(3S,4R)-4-fluoropyrrolidin-3-yl]-6-methylmorpholine-2-carboxamide hydrochloride] | 2 nM and 2.5 nM and 2.6 nM |

Same assay, conditions: IC50 average, HEK-hTLR8; CL097 12 ug/ml; average of three tests

| Structure (SMILES) | IC50 [nM] |
| --- | --- |
| C[C@@H]1CN(c2ccc(C#N)c3ncccc23)C[C@H](C(=O)N[C@H]2CNC[C@H]2F)O1.Cl [ER-899742, (2R,6R)-4-(8-cyanoquinolin-5-yl)-N-[(3S,4R)-4-fluoropyrrolidin-3-yl]-6-methylmorpholine-2-carboxamide hydrochloride] | 2.4 |
